Bridge positions count the residues as written; N and C are the ends. Square brackets hold non-standard residues; d marks the D form. Peptide text beside a SMILES is read from it.
Test system: H1N1 A/PR/8-MC/1934
Set-up: species or system BALB/c female mice
Details: mouse, in vivo

## CC[C@@H](C)[C@H]1NC(=O)[C@@H](Cc2ccccc2)NC(=O)[C@@H]([C@H](C)O)NC(=O)[C@@H](Cc2ccccc2)NC(=O)[C@@H](Cc2c[nH]c3ccccc23)NC(=O)[C@@H]([C@H](C)O)NC(=O)[C@H](NC(=O)[C@H](CCCCN)NC(=O)[C@H](CCCCN)NC(=O)[C@H](CCCNC(=N)N)NC(=O)[C@@H](N)CCCNC(=N)N)CSSC[C@H](C(=O)O)NC(=O)[C@@H](CC(N)=O)NC1=O [PSP IV A17, H-RRKKctwftfinc-OH] (H-RRKK[dC][dT][dW][dF][dT][dF][dI][dN][dC]-OH; disulfide 5-13)
  morbidity of influenza infected mice: completely inhibited the morbidity

Reference: patent US10538554B2, “Peptides and uses therefor as antiviral agents” (priority 2015, dated 2020)
